Measured values taken from ChEMBL document CHEMBL1201862, “PubChem BioAssay data set” (2004).
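Test compounds were applied to cells in 96-well plates for 48 hours at 5 doses. At the GI50, growth is halved.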 The source made the active and inactive calls. No stated cut-off is given here; in the data, active = GI50 up to about 1.1 µM and inactive = higher.

How the values were obtained:
Assay in all cases: NCI anticancer screen, dose series, 48 h
[1] = system: 786-0
[2] = system: A498
[3] = system: A549
[4] = system: ACHN
[5] = system: BT-549
[6] = system: CAKI-1
[7] = system: CCRF-CEM
[8] = system: COLO 205
[9] = system: DU-145
[10] = system: EKVX
[11] = system: HCC 2998
[12] = system: HCT-116
[13] = system: HCT-15
[14] = system: HL-60
[15] = system: HOP-62
[16] = system: HOP-92
[17] = system: HT-29
[18] = system: Hs-578T
[19] = system: IGROV-1
[20] = system: K562
[21] = system: KM12
[22] = system: LOX IMVI
[23] = system: M14
[24] = system: MCF7
[25] = system: MDA-MB-231
[26] = system: MDA-MB-435
[27] = system: MDA-N
[28] = system: MOLT-4
[29] = system: Malme-3M
[30] = system: NCI-H226
[31] = system: NCI-H23
[32] = system: NCI-H522
[33] = system: NCI/ADR-RES
[34] = system: OVCAR-3
[35] = system: OVCAR-4
[36] = system: OVCAR-5
[37] = system: OVCAR-8
[38] = system: PC-3
[39] = system: RPMI-8226
[40] = system: RXF 393
[41] = system: SF-268
[42] = system: SF-295
[43] = system: SF-539
[44] = system: SK-MEL-28
[45] = system: SK-MEL-2
[46] = system: SK-MEL-5
[47] = system: SK-OV-3
[48] = system: SN12C
[49] = system: SNB-19
[50] = system: SNB-75
[51] = system: SR
[52] = system: SW-620
[53] = system: TK-10
[54] = system: U-251
[55] = system: UACC-257
[56] = system: UACC-62
[57] = system: UO-31
[58] = system: T47D
[59] = system: NCI-H460

For `Nc1ccc(-c2nc3ccccc3s2)cc1Cl`, the GI50 [1] was 74 µM (inactive), the GI50 [2] was 0.223 µM (active) and the GI50 [3] was > 87.1 µM (inactive). For the same compound, the GI50 [4] was > 100 µM (inactive), the GI50 [5] was > 66.4 µM (inactive) and the GI50 [6] was > 93.3 µM (inactive). For the same compound, the GI50 [7] was 10.2 µM (inactive), the GI50 [8] was > 56.2 µM (inactive) and the GI50 [9] was > 100 µM (inactive). The GI50 [10] was 25.2 µM (inactive), the GI50 [11] was > 64.3 µM (inactive) and the GI50 [12] was > 100 µM (inactive). The GI50 [13] was greater than 48.8 µM, the GI50 [14] was > 92.3 µM (inactive) and the GI50 [15] was 18.8 µM (inactive). For the same compound, the GI50 [16] was > 44.5 µM (inactive), the GI50 [17] was > 100 µM (inactive) and the GI50 [18] was 56 µM (inactive). For the same compound, the GI50 [19] was < 0.01 µM (active), the GI50 [20] was 66.7 µM (inactive) and the GI50 [21] was 40.3 µM (inactive). For the same compound, the GI50 [22] was 46.8 µM (inactive), the GI50 [23] was > 100 µM (inactive) and the GI50 [24] was < 0.01 µM (active). For the same compound, the GI50 [25] was > 92.9 µM (inactive), the GI50 [26] was > 100 µM (inactive) and the GI50 [27] was > 100 µM (inactive). For the same compound, the GI50 [28] was 16.3 µM (inactive), the GI50 [29] was > 100 µM (inactive) and the GI50 [30] was 0.571 µM (active). For the same compound, the GI50 [31] was 69.3 µM (inactive), the GI50 [32] was 98.6 µM (inactive) and the GI50 [33] was > 100 µM (inactive). The GI50 [34] was < 0.01 µM (active), the GI50 [35] was > 100 µM (inactive) and the GI50 [36] was 0.0259 µM (active). For the same compound, the GI50 [37] was > 100 µM (inactive), the GI50 [38] was > 73.6 µM (inactive) and the GI50 [39] was 36.1 µM (inactive). The GI50 [40] was > 39.8 µM (inactive), the GI50 [41] was 67 µM (inactive) and the GI50 [42] was 53.5 µM (inactive). For the same compound, the GI50 [43] was 77.6 µM (inactive), the GI50 [44] was > 100 µM (inactive) and the GI50 [45] was > 100 µM (inactive). For the same compound, the GI50 [46] was > 87.3 µM (inactive), the GI50 [47] was > 73.8 µM (inactive) and the GI50 [48] was > 100 µM (inactive). The GI50 [49] was > 70.8 µM (inactive), the GI50 [50] was 16.6 µM (inactive) and the GI50 [51] was > 100 µM (inactive). The GI50 [52] was > 100 µM (inactive), the GI50 [53] was < 0.01 µM (active) and the GI50 [54] was 58.2 µM (inactive). The GI50 [55] was > 100 µM (inactive), the GI50 [56] was > 100 µM (inactive) and the GI50 [57] was 23.3 µM (inactive).
`O=C(O)c1ccccc1SCc1cccc2c(=O)c3ccc(Cl)cc3oc12` was tested, and the GI50 [1] was 25.3 µM (inactive), the GI50 [2] was > 50 µM (inactive) and the GI50 [3] was > 50 µM (inactive). The GI50 [4] was 32.4 µM (inactive), the GI50 [5] was 48.8 µM (inactive) and the GI50 [6] was > 50 µM (inactive). For the same compound, the GI50 [7] was > 50 µM (inactive), the GI50 [8] was > 50 µM (inactive) and the GI50 [10] was > 50 µM (inactive). The GI50 [11] was > 50 µM (inactive), the GI50 [12] was 36.1 µM (inactive) and the GI50 [13] was greater than 50 µM. For the same compound, the GI50 [14] was 11 µM (inactive), the GI50 [15] was 12.9 µM (inactive) and the GI50 [17] was > 50 µM (inactive). For the same compound, the GI50 [19] was 49.5 µM (inactive), the GI50 [20] was 27.7 µM (inactive) and the GI50 [21] was > 50 µM (inactive). The GI50 [22] was > 50 µM (inactive), the GI50 [23] was > 50 µM (inactive) and the GI50 [24] was > 50 µM (inactive). For the same compound, the GI50 [25] was > 50 µM (inactive), the GI50 [26] was > 50 µM (inactive) and the GI50 [27] was > 50 µM (inactive). The GI50 [28] was > 50 µM (inactive), the GI50 [29] was 10.7 µM (inactive) and the GI50 [30] was > 50 µM (inactive). For the same compound, the GI50 [31] was 35.3 µM (inactive), the GI50 [32] was 29.2 µM (inactive) and the GI50 [33] was > 50 µM (inactive). For the same compound, the GI50 [34] was > 50 µM (inactive), the GI50 [35] was 41.5 µM (inactive) and the GI50 [36] was > 50 µM (inactive). The GI50 [37] was > 50 µM (inactive), the GI50 [38] was 26.8 µM (inactive) and the GI50 [39] was > 50 µM (inactive). The GI50 [42] was 20.2 µM (inactive), the GI50 [43] was 19.5 µM (inactive) and the GI50 [44] was > 50 µM (inactive). The GI50 [45] was 46.9 µM (inactive), the GI50 [46] was > 50 µM (inactive) and the GI50 [47] was > 50 µM (inactive). The GI50 [48] was > 50 µM (inactive), the GI50 [50] was 15.6 µM (inactive) and the GI50 [51] was 39 µM (inactive). For the same compound, the GI50 [52] was > 50 µM (inactive), the GI50 [58] was > 50 µM (inactive) and the GI50 [53] was 29.8 µM (inactive). For the same compound, the GI50 [54] was 17.5 µM (inactive), the GI50 [55] was > 50 µM (inactive) and the GI50 [56] was 21.4 µM (inactive). The GI50 [57] was > 50 µM (inactive).
For `COc1cc(C2c3cc4c(cc3C(=O)C3CCC(=O)N32)OCO4)cc(OC)c1O` (stereo not drawn), the GI50 [1] was > 50 µM (inactive), the GI50 [2] was > 50 µM (inactive) and the GI50 [3] was > 50 µM (inactive). The GI50 [4] was > 50 µM (inactive), the GI50 [5] was > 50 µM (inactive) and the GI50 [7] was > 50 µM (inactive). The GI50 [8] was > 50 µM (inactive), the GI50 [9] was > 50 µM (inactive) and the GI50 [10] was > 50 µM (inactive). The GI50 [12] was > 50 µM (inactive), the GI50 [13] was greater than 50 µM and the GI50 [14] was > 50 µM (inactive). The GI50 [15] was > 50 µM (inactive), the GI50 [16] was > 50 µM (inactive) and the GI50 [17] was > 50 µM (inactive). The GI50 [19] was > 50 µM (inactive), the GI50 [20] was > 50 µM (inactive) and the GI50 [21] was > 50 µM (inactive). The GI50 [23] was > 50 µM (inactive), the GI50 [24] was > 50 µM (inactive) and the GI50 [26] was > 50 µM (inactive). For the same compound, the GI50 [27] was > 50 µM (inactive), the GI50 [28] was > 50 µM (inactive) and the GI50 [30] was > 50 µM (inactive). For the same compound, the GI50 [31] was > 50 µM (inactive), the GI50 [59] was > 50 µM (inactive) and the GI50 [33] was > 50 µM (inactive). The GI50 [34] was > 50 µM (inactive), the GI50 [35] was > 50 µM (inactive) and the GI50 [36] was > 50 µM (inactive). For the same compound, the GI50 [37] was > 50 µM (inactive), the GI50 [38] was > 50 µM (inactive) and the GI50 [39] was > 50 µM (inactive). For the same compound, the GI50 [40] was > 50 µM (inactive), the GI50 [42] was > 50 µM (inactive) and the GI50 [43] was > 50 µM (inactive). The GI50 [44] was > 50 µM (inactive), the GI50 [45] was > 50 µM (inactive) and the GI50 [47] was > 50 µM (inactive). The GI50 [48] was > 50 µM (inactive), the GI50 [49] was > 50 µM (inactive) and the GI50 [50] was > 50 µM (inactive). The GI50 [51] was > 50 µM (inactive), the GI50 [52] was > 50 µM (inactive) and the GI50 [58] was > 50 µM (inactive). The GI50 [54] was > 50 µM (inactive), the GI50 [55] was > 50 µM (inactive) and the GI50 [56] was > 50 µM (inactive). The GI50 [57] was > 50 µM (inactive).
